Active and inactive are the calls of the source. The rule behind the calls is not given here.
How the values were obtained:
[1] = biological target: Kappa-type opioid receptor (Cavia porcellus, UniProt P41144); assay: Displacement of [3H]U-69,593 from kappa-type opioid receptor in guinea pig brain membranes after 120 mins by solid scintillation counting; type: cell membranes, Membrane
Mu-type opioid receptor = Mu-type opioid receptor (Cavia porcellus, UniProt P97266); assay: Displacement of [3H]DAMGO from mu-type opioid receptor in guinea pig brain membranes after 120 mins by solid scintillation counting; type: cell membranes, Membrane
Chain of Mu-type opioid receptor (P97266 whole entry): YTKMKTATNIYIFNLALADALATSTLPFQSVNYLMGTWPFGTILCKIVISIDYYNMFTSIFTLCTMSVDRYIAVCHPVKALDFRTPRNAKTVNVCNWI

[2] = Displacement of [3H]DPDPE from delta-type opioid receptor in guinea pig brain membranes after 120 mins by solid scintillation counting; type: cell membranes, Cavia porcellus, Membrane
[3] = biological target: Sigma non-opioid intracellular receptor 1 (Cavia porcellus) (UniProt Q60492); assay: Displacement of [3H]-(+)-pentazocine from sigma1-type […] receptor in guinea pig cortex membranes at 1 uM after 120 mins by solid scintillation counting; type: cell membranes
Chain of Sigma non-opioid intracellular receptor 1 (Cavia porcellus) (Q60492 whole entry): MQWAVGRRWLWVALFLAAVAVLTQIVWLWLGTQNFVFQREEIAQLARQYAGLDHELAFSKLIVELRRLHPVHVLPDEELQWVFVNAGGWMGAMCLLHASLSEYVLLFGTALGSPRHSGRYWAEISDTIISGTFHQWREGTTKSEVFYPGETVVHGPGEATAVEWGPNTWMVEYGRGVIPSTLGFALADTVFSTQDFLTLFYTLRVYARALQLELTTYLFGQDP

Rattus norvegicus [4] = species on record: Rattus norvegicus; assay: Displacement of [3H]-DTG from sigma 2 receptor in rat liver membranes at 1 uM after 120 mins by scintillation counting; type: cell membranes; conditions: Membrane
Sus scrofa = species on record: Sus scrofa; assay: Displacement of [3H]-(+)-MK 801 from PCP binding site of NMDA receptor in pig brain cortex membranes at 10 uM after 120 mins by solid scintillation counting; type: cell membranes
[5] = biological target: T1, Kappa-type opioid receptor (Homo sapiens, UniProt P41145); assay: Agonist activity at recombinant human kappa-type opioid receptor expressed in HEK293 cells after 30 mins by [35S]GTPgammaS binding assay; type: functional, cell-based
T1 sequence (P41145 whole entry): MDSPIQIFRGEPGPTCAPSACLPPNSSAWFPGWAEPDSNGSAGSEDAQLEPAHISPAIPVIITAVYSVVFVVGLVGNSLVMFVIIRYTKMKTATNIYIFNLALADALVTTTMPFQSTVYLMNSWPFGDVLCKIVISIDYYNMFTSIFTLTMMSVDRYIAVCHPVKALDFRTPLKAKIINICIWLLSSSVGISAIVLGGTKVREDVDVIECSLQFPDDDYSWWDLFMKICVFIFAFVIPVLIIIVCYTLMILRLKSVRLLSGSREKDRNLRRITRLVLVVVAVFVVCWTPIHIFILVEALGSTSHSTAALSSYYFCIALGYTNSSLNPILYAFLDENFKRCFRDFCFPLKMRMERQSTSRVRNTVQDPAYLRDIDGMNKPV

[6] = biological target: T1, Kappa-type opioid receptor; assay: Agonist activity at recombinant human kappa-type opioid receptor expressed in HEK293 cells at 1 uM after 30 mins by [35S]GTPgammaS binding assay; type: functional, cell-based
[7] = Stability of the compound in buffer; type: physicochemical
[8] = Plasma concentration in Wistar Han rat at 1 mg/kg, iv measured 0.25 hrs post compound administration; type: ADME, organism-based
[9] = Plasma concentration in Wistar Han rat at 1 mg/kg, iv measured 1 hr post compound administration; type: ADME, organism-based
[10] = Drug level in Wistar Han rat brain at 1 mg/kg, iv measured 1 hr post compound administration; type: ADME, organism-based; conditions: Wistar Han, brain, read-out: Drug uptake
[11] = Ratio of drug level in brain to plasma in Wistar Han rat at 1 mg/kg, iv after 1 hr; type: ADME, organism-based; conditions: read-out: BPR
Rattus norvegicus [12] = assay: Toxicity in Wistar Han rat assessed as clinical signs changes at 1 mg/kg, iv after 1 hr; type: organism-based; conditions: in vivo
[13] = biological target: Mu-type opioid receptor (Cavia porcellus) (UniProt P97266); assay: Displacement of [3H]DAMGO from mu-type opioid receptor in guinea pig brain membranes at 1 uM after 120 mins by solid scintillation counting; type: cell membranes; conditions: Membrane
Chain of Mu-type opioid receptor (Cavia porcellus) (P97266 whole entry): as the sequence (P97266 whole entry) above

[14] = Lipophilicity, logD of the compound at pH 7.4 by LC/MS analysis; type: physicochemical; conditions: buffer
Mus musculus [15] = assay: Antiinflammatory activity in arachidonic acid-induced ear dermatitis ICR mouse model assessed as reduction in ear swelling at 0.1 mg administered twice tropically 30 mins prior and 15 mins after arachidonic acid addition measured 60 mins post arachidonic acid challenge relative to control; type: functional
Mus musculus [16] = assay: Antiinflammatory activity in arachidonic acid-induced ear dermatitis ICR mouse model assessed as reduction in ear swelling at 0.3 mg administered twice tropically 30 mins prior and 15 mins after arachidonic acid addition measured 60 mins post arachidonic acid challenge relative to control; type: functional
Mus musculus [17] = assay: Antiinflammatory activity in arachidonic acid-induced ear dermatitis ICR mouse model assessed as reduction in ear swelling at 1 mg administered twice tropically 30 mins prior and 15 mins after arachidonic acid addition measured 60 mins post arachidonic acid challenge relative to control; type: functional
Mus musculus [18] = assay: Antiinflammatory activity in arachidonic acid-induced ear dermatitis ICR mouse model assessed as reduction in ear swelling at 3 mg administered twice tropically 30 mins prior and 15 mins after arachidonic acid addition measured 60 mins post arachidonic acid challenge relative to control; type: functional
Mus musculus [19] = assay: (§1) Antiinflammatory activity in oxazolone-induced delayed type hypersensitivity BALB/c mouse model assessed as reduction in ear weight at 2.5 mg applied topically on ear administered 3 hrs prior to oxazolone challenge on day 7 to 12 post sensitization followed by re-administration of compound on day 13 to 18 without oxazolone challenge measured on day 19; type: functional
Mus musculus [20] = assay: Antiinflammatory activity in oxazolone-induced delayed type hypersensitivity BALB/c mouse model assessed as reduction in ear swelling at 2.5 mg applied topically on ear administered 3 hrs prior to oxazolone challenge on day 7 to 12 post sensitization followed by re-administration of compound on day 13 to 18 without oxazolone challenge measured daily prior to treatment from day 7 to 19; type: functional
Mus musculus [21] = assay: as §1, with “thickness” for “weight”, “0.5” for “2.5”; type: functional
Mus musculus [22] = assay: Antinociceptive activity in sc dosed mouse model of acetic acid-induced writhing; type: functional
Mus musculus [23] = assay: CNS toxicity in sc dosed mouse model of acetic acid-induced writhing assessed as lowest dose causing side effects; type: organism-based; conditions: in vivo
[24] = Plasma concentration in Wistar Han rat at 5 mg/kg, iv measured 0.25 hrs post compound administration; type: ADME, organism-based
[25] = Plasma concentration in Wistar Han rat at 5 mg/kg, iv measured 1 hr post compound administration; type: ADME, organism-based
[26] = Drug level in Wistar Han rat brain at 5 mg/kg, iv measured 1 hr post compound administration; type: ADME, organism-based; conditions: read-out: Drug uptake
[27] = Ratio of drug level in brain to plasma in Wistar Han rat at 5 mg/kg, iv after 1 hr; type: ADME, organism-based; conditions: read-out: BPR
Rattus norvegicus [28] = assay: Toxicity in Wistar Han rat assessed as induction of slight lethargy at 5 mg/kg, iv after 0.25 hrs; type: organism-based; conditions: in vivo
Rattus norvegicus [29] = assay: Toxicity in Wistar Han rat assessed as induction of slight lethargy at 5 mg/kg, iv after 1 hr; type: organism-based; conditions: in vivo
Mus musculus [30] = assay: Antiinflammatory activity in tropically administered oxazolone-induced delayed type hypersensitivity BALB/c mouse model assessed as effect on ear weight administered 3 hrs prior to oxazolone challenge on day 7 to 12 post sensitization followed by re-administration of compound on day 13 to 18 without oxazolone challenge measured on day 19; type: functional
Mus musculus [31] = assay: as §1, with “weight at 0.1 to 2.5 mg” for “weight at 2.5 mg”; type: functional
Mus musculus [32] = assay: Antiinflammatory activity in oxazolone-induced delayed type hypersensitivity BALB/c mouse model assessed as effect on histology changes at 0.1 to 2.5 mg applied topically on ear administered 3 hrs prior to oxazolone challenge on day 7 to 12 post sensitization followed by re-administration of compound on day 13 to 18 without oxazolone challenge measured daily prior to treatment from day 7 to 19 by H and E staining based assay; type: functional

Chain of Kappa-type opioid receptor (Cavia porcellus, UniProt P41144) (P41144 whole entry): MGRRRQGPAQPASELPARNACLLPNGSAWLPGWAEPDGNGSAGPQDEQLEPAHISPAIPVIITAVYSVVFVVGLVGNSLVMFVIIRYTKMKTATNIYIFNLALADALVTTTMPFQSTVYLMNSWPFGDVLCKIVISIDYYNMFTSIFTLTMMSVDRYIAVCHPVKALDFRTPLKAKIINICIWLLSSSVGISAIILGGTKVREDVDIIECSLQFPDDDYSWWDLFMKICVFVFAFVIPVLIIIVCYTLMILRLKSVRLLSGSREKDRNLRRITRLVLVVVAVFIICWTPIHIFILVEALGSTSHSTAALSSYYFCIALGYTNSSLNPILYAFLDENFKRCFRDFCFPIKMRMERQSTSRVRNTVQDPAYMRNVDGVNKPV

| SMILES | Ki [1] [nM] | Ki [2] [nM] | inhibition [3] [%] | inhibition (Rattus norvegicus [4]) [%] | inhibition (Sus scrofa) [%] | EC50 [5] [nM] | Activity [6] [%] | concentration at 0.25 h [8] [ng/mL] | concentration at 1 h [9] [ng/mL] | concentration at 1 h [10] [ng/g] | Kp at 1 h [11] | Activity (Rattus norvegicus [12]) | inhibition [13] [%] | other results |
| --- | --- | --- | --- | --- | --- | --- | --- | --- | --- | --- | --- | --- | --- | --- |
| CCOC(=O)CN1CCN(C(=O)Cc2ccc(Cl)c(Cl)c2)[C@@H]2[C@@H](N3CCCC3)CCC[C@@H]21 | 0.43 | 907 | 0 | 12 | 0 | 3.2 | 106 | – | – | – | – | – | – | Ki (Mu-type opioid receptor): 830 nM; Stability [7]: Unstable |
| COC(=O)N1CCN(C(=O)Cc2ccc(Cl)c(Cl)c2)[C@@H]2[C@@H](N3CC[C@@H](O)C3)CCC[C@@H]21.Cl | – | – | – | – | – | – | – | 454 | 115 | 7.9 | 0.07 | Non-Toxic | – | – |
| CNC(=O)C(=O)N1CCN(C(=O)Cc2ccc(Cl)c(Cl)c2)[C@@H]2[C@@H](N3CCCC3)CCC[C@@H]21 | 1.5 | 681 | 0 | 4 | 8 | 8.1 | 104 | – | – | – | – | – | 12 | logD [14]: 1.71; inhibition (INH) (Mus musculus [15]): 21%; inhibition (INH) (Mus musculus [16]): 30%; inhibition (INH) (Mus musculus [17]): 53%; inhibition (INH) (Mus musculus [18]): 65%; Activity (Mus musculus [19]): Active; Activity (Mus musculus [20]): Active |
| O=C(Cc1ccc(Cl)c(F)c1)N1CCN(S(=O)(=O)Cc2ccon2)[C@H]2CCC[C@H](N3CC[C@H](O)C3)[C@H]21 | 0.82 | 1380 | 0 | 7 | 13 | 1.4 | 105 | – | – | – | – | – | 6 | logD [14]: 1.4 |
| CS(=O)(=O)N1CCN(C(=O)Cc2ccc(F)c(Cl)c2)[C@@H]2[C@@H](N3CC[C@H](O)C3)CCC[C@@H]21 | – | – | 3 | 3 | 6 | – | 99 | – | – | – | – | – | 0 | Activity (Mus musculus [19]): Active; Activity (Mus musculus [20]): Active; Activity (Mus musculus [21]): Active |
| CS(=O)(=O)N1CCN(C(=O)Cc2ccc(Cl)c(Cl)c2)[C@@H]2[C@@H](N3CCCC3)CCC[C@@H]21.Cl | – | – | – | – | – | – | – | 246 | 124 | 2.9 | 0.02 | Non-Toxic | – | – |
| COC(=O)CN1CCN(C(=O)Cc2ccc(Cl)c(Cl)c2)[C@@H]2[C@@H](N3CCCC3)CCC[C@@H]21.Cl | – | – | – | – | – | – | – | 477 | 199 | 4.6 | 0.02 | Non-Toxic | – | – |
| COC(=O)N1CCN(C(=O)Cc2ccc(Cl)c(Cl)c2)[C@@H]2[C@@H](N3CC[C@H](O)C3)CCC[C@@H]21 | 0.45 | 101 | – | – | – | 0.9 | – | – | – | – | – | – | – | Ki (Mu-type opioid receptor): 184 nM; inhibition (INH) (Mus musculus [15]): 23%; inhibition (INH) (Mus musculus [16]): 25%; inhibition (INH) (Mus musculus [17]): 41%; inhibition (INH) (Mus musculus [18]): 66%; ED50 (Mus musculus [22]): 2.2 mg/kg; MTC (Mus musculus [23]): 5.4 mg/kg |
| COC(=O)N1CCN(C(=O)Cc2ccc(C(F)(F)F)c(Cl)c2)[C@@H]2[C@@H](N3CC[C@H](O)C3)CCC[C@@H]21.Cl | – | – | – | – | – | – | – | – | – | – | – | – | – | concentration at 0.25 h [24]: 1860 ng/mL; concentration at 1 h [25]: 573 ng/mL; concentration at 1 h [26]: 95.8 ng/g; Kp at 1 h [27]: 0.17; Activity (Rattus norvegicus [28]): Toxic; Activity (Rattus norvegicus [29]): Toxic |
| COC(=O)N1CCN(C(=O)Cc2ccc(Cl)c(F)c2)[C@@H]2[C@@H](N3CC[C@H](O)C3)CCC[C@@H]21 | – | – | 0 | 0 | 11 | – | 93 | – | – | – | – | – | – | Activity (Mus musculus [30]): Dose-dependent effect; Activity (Mus musculus [31]): Dose-dependent effect; Activity (Mus musculus [32]): Active; Activity (Mus musculus [21]): Active |

Source: ChEMBL document CHEMBL4007424, “Design and Synthesis of Enantiomerically Pure Decahydroquinoxalines as Potent and Selective κ-Opioid Receptor Agonists with Anti-Inflammatory Activity in Vivo” (J Med Chem, 2017)
